In one experiment the target is E. coli topoisomerase I (Escherichia coli, UniProt P06612). Put plainly: E. coli topoisomerase I relaxation activity inhibition assay. In kind it is biochemical.
Another experiment addresses T1, Human topoisomerase I (Homo sapiens, UniProt P11387).
T1 sequence (P11387 1-765): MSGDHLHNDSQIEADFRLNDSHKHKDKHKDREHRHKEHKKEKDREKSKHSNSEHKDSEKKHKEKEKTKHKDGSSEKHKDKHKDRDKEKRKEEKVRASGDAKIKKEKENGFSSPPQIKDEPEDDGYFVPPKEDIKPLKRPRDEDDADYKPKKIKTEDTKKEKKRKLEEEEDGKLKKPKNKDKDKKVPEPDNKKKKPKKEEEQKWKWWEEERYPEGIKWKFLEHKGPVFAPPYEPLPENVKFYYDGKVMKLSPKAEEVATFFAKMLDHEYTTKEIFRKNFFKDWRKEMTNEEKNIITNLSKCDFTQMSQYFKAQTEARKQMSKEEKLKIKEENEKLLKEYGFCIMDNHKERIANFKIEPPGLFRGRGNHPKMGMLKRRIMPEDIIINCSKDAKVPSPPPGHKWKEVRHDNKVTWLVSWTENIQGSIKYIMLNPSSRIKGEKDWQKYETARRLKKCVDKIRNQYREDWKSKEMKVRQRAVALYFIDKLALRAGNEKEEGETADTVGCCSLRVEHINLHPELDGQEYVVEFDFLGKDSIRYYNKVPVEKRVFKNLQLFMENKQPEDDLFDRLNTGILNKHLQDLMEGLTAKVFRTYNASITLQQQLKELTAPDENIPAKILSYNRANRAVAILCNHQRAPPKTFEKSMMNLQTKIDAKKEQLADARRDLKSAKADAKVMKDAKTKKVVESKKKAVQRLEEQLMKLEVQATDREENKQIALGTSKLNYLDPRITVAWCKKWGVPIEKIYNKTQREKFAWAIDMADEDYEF
As to the kind of experiment: Human topoisomerase I relaxation inhibition assay. Format: biochemical.

Another experiment relates to M tuberculosis (H37Rv). Put plainly: MIC by modified microplate Alamar blue assay. Format: cell-based. (In general: Alamar Blue is a resazurin reagent that responds to reducing activity.)
The subject of a further experiment is E. coli (MG1655) WT. Put plainly: MIC by broth microdilution, wild-type E. coli. Conditions: Escherichia coli, MG1655, read-out: Whole cell based antibacterial activity (MIC, µM) E. coli (MG1655) WT. (In general: Dilution methods test growth across graded concentrations, often in twofold steps.)

The structures appear in SMILES notation.

Chain of E. coli topoisomerase I (P06612 whole entry): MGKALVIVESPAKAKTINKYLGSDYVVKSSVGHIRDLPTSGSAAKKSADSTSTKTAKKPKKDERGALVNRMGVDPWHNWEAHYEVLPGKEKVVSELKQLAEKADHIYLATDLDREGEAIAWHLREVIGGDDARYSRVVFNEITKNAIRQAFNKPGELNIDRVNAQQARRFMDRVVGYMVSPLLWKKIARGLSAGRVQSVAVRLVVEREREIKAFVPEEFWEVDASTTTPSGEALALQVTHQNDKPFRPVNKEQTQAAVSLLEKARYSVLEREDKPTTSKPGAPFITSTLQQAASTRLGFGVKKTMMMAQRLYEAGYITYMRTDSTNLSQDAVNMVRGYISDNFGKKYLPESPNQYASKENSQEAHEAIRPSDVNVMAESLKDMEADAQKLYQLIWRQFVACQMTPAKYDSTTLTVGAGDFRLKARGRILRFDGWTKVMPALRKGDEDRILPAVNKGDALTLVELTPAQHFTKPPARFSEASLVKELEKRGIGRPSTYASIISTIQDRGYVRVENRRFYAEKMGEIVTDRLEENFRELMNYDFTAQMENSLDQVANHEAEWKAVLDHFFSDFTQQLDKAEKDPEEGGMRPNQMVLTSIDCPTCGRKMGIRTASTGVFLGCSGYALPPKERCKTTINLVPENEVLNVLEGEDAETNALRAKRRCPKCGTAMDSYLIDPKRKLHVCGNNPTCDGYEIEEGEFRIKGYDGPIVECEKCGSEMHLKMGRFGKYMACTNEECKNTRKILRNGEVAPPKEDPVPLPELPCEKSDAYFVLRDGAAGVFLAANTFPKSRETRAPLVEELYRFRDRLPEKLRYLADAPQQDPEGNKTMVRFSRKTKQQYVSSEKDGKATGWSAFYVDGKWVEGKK

`CCOC(=O)c1cn2c3c(c(F)c(F)cc3c1=O)Oc1cc(C(F)(F)F)ccc1-2` [Compound 6c, Ethyl 5,6-difluoro-3-oxo-9-(trifluoromethyl)-3H–pyrido[3,2,1-kl]phenoxazine-2-carboxylate] had an IC50 on E. coli topoisomerase I (pIC50, experimental, pIC50 = – logIC50, E. coli topoisomerase I) above 125 µM.

As to `O=C(O)c1cn2c3c(c(F)c(F)cc3c1=O)Oc1cc(C(F)(F)F)ccc1-2` [Compound 7c, 5,6-Difluoro-3-oxo-9-(trifluoromethyl)-3H–pyrido[3,2,1-kl]phenoxazine-2-carboxylic acid], the IC50 against E. coli topoisomerase I (IC50 (µM), E. coli topoisomerase I, value as used in the CoMFA dataset (Table 2)) is above 125 µM.

Consider `CC(=O)c1ccc2c(c1)Oc1c(F)c(F)cc3c(=O)c(C(=O)O)cn-2c13` [Compound 7d, 9-Acetyl-5,6-difluoro-3-oxo-3H–pyrido[3,2,1-kl] phenoxazine-2-carboxylic acid], for which, on E. coli topoisomerase I, the “fold less active than 1 against E. coli topoisomerase I” value is recorded as 8–16 fold.

As to `O=C(O)c1cn2c3c(c(F)c(F)cc3c1=O)Oc1cc([N+](=O)[O-])c(Cl)cc1-2` [Compound 7e, 10-Chloro-5,6-difluoro-9-nitro-3-oxo-3H–pyrido[3,2,1-kl]phenoxazine-2-carboxylic acid], the “fold less active than 1 against E. coli topoisomerase I” value on E. coli topoisomerase I was 8–16 fold.

In turn, `Nc1ccc2c(c1)Oc1c(NCCN3CCOCC3)c(F)cc3c(=O)c(C(=O)O)cn-2c13` [Compound 11h, 9-Amino-5-fluoro-6-((2-morpholinoethyl)amino)-3-oxo-3H–pyrido[3,2,1-kl]phenoxazine-2-carboxylic acid] showed an IC50 at Human topoisomerase I of 7.8 to 15.6 µM.

With `Nc1ccc2c(c1)Oc1c(N3CC[C@H](N)C3)c(F)cc3c(=O)c(C(=O)O)cn-2c13` [Compound 17a, (S)-9-amino-6-(3-aminopyrrolidin-1-yl)-5-fluoro-3-oxo-3H–pyrido[3,2,1-kl]phenoxazine-2-carboxylic acid], in the experiment on M tuberculosis (H37Rv) (MABA), the “Whole cell based antibacterial activity (MIC, µM) M tuberculosis (H37Rv)” value is above 63.1 µM. Besides, in the experiment with M tuberculosis (H37Rv) (Mycobacterium tuberculosis, H37RV, read-out: Whole cell based antibacterial activity (MIC, µM) M tuberculosis (H37Rv)), the MIC was above 63.1 µM.

In the case of `Nc1ccc2c(c1)Oc1c(N3CC[C@@H](N)C3)c(F)cc3c(=O)c(C(=O)O)cn-2c13` [Compound 17b, (R)-9-amino-6-(3-aminopyrrolidin-1-yl)-5-fluoro-3-oxo-3H–pyrido[3,2,1-kl]phenoxazine-2-carboxylic acid], in the experiment on E. coli (MG1655) WT, the MIC was above 200 µM.

What is called IC50 is the concentration needed to halve the response being measured. Lower therefore signals greater potency in that assay. The MIC is the lowest concentration that inhibits growth of the organism.
